Reference: ChEMBL document CHEMBL3885861, “Open TG-GATES”

Organism: Rattus norvegicus
Test: Open TG-GATES - Regimen: Single
Type: toxicity, organism-based, Sprague-Dawley
Design: regimen Single, gender Male, age 6 weeks
Conditions: in vivo, po, route gavage; for APTT / Bas / Eos / Fbg / Hb / Ht / Lym / MCHC / MCV / Mono / Neu / PT / Plat / RBC / Ret / WBC: tissue Blood; for KIDNEY_L / KIDNEY_R / KIDNEY_TOTAL: tissue Kidney; for LIVER: tissue Liver
[1] = 100 mg/kg, 3 h, tissue Plasma, dose level Low
[2] = 100 mg/kg, 6 h, tissue Plasma, dose level Low
[3] = 100 mg/kg, 9 h, tissue Plasma, dose level Low
[4] = 100 mg/kg, 24 h, dose level Low
[5] = 100 mg/kg, 24 h, tissue Plasma, dose level Low
[6] = 300 mg/kg, 3 h, dose level Middle

CN(C)C(=N)N=C(N)N [METFORMIN]
APTT (100 mg/kg, 3 h, dose level Low): 16 s | Bas (100 mg/kg, 3 h, dose level Low): 0% | Eos (100 mg/kg, 3 h, dose level Low): 0.8% | Fbg (100 mg/kg, 3 h, dose level Low): 241.8 mg/dL | Hb (100 mg/kg, 3 h, dose level Low): 13.2 g/dL | Ht (100 mg/kg, 3 h, dose level Low): 39.9% | Lym (100 mg/kg, 3 h, dose level Low): 77.2% | MCHC (100 mg/kg, 3 h, dose level Low): 33.1% | MCV (100 mg/kg, 3 h, dose level Low): 65.8 fL | Mono (100 mg/kg, 3 h, dose level Low): 3.4% | Neu (100 mg/kg, 3 h, dose level Low): 18.2% | PT (100 mg/kg, 3 h, dose level Low): 12.3 s | Plat (100 mg/kg, 3 h, dose level Low): 118.9 x10_4/uL | RBC (100 mg/kg, 3 h, dose level Low): 607.2 x10_4/ul | Ret (100 mg/kg, 3 h, dose level Low): 10% | WBC (100 mg/kg, 3 h, dose level Low): 81.3 x10_2/uL | KIDNEY_L (100 mg/kg, 3 h, dose level Low): 0.9 g | KIDNEY_R (100 mg/kg, 3 h, dose level Low): 0.8 g | KIDNEY_TOTAL (100 mg/kg, 3 h, dose level Low): 1.7 g | LIVER (100 mg/kg, 3 h, dose level Low): 8.3 g | ALP [1]: 1250.2 IU/L | AST [1]: 72.4 IU/L | BUN [1]: 8.4 mg/dL | CRE [1]: 0.2 mg/dL | Ca [1]: 11.2 mg/dL | Cl [1]: 105.2 meq/L | DBIL [1]: 0.008 mg/dL | GLC [1]: 168.4 mg/dL | IP [1]: 8.7 mg/dL | K [1]: 4.3 meq/L | LDH [1]: 62.6 IU/L | Na [1]: 139.4 meq/L | PL [1]: 135.8 mg/dL | RALB [1]: 2.5 g/dL | TBIL [1]: 0.042 mg/dL | TC [1]: 83.6 mg/dL | TG [1]: 54.6 mg/dL | TP [1]: 5.1 g/dL | gamma-GTP [1]: 1.2 IU/L | TERMINAL_BW (100 mg/kg, 6 h, dose level Low): 200.6 g | APTT (100 mg/kg, 6 h, dose level Low): 16 s | Bas (100 mg/kg, 6 h, dose level Low): 0% | Eos (100 mg/kg, 6 h, dose level Low): 0.8% | Fbg (100 mg/kg, 6 h, dose level Low): 249 mg/dL | Hb (100 mg/kg, 6 h, dose level Low): 12.8 g/dL | Ht (100 mg/kg, 6 h, dose level Low): 38.8% | Lym (100 mg/kg, 6 h, dose level Low): 75.2% | MCHC (100 mg/kg, 6 h, dose level Low): 33% | MCV (100 mg/kg, 6 h, dose level Low): 63.6 fL | Mono (100 mg/kg, 6 h, dose level Low): 3.4% | Neu (100 mg/kg, 6 h, dose level Low): 19.6% | PT (100 mg/kg, 6 h, dose level Low): 12.4 s | Plat (100 mg/kg, 6 h, dose level Low): 125.3 x10_4/uL | RBC (100 mg/kg, 6 h, dose level Low): 610.4 x10_4/ul | Ret (100 mg/kg, 6 h, dose level Low): 9.8% | WBC (100 mg/kg, 6 h, dose level Low): 95.4 x10_2/uL | KIDNEY_L (100 mg/kg, 6 h, dose level Low): 0.9 g | KIDNEY_R (100 mg/kg, 6 h, dose level Low): 0.9 g | KIDNEY_TOTAL (100 mg/kg, 6 h, dose level Low): 1.7 g | LIVER (100 mg/kg, 6 h, dose level Low): 7.8 g | ALT [2]: 55.4 IU/L | AST [2]: 84.6 IU/L | BUN [2]: 8.2 mg/dL | CRE [2]: 0.1 mg/dL | Ca [2]: 10.8 mg/dL | Cl [2]: 105.4 meq/L | DBIL [2]: 0.008 mg/dL | GLC [2]: 168.4 mg/dL | IP [2]: 10.2 mg/dL | K [2]: 4.2 meq/L | LDH [2]: 71.8 IU/L | Na [2]: 139.2 meq/L | PL [2]: 124 mg/dL | RALB [2]: 2.4 g/dL | TBIL [2]: 0.046 mg/dL | TG [2]: 26.8 mg/dL | TP [2]: 5 g/dL | gamma-GTP [2]: 1.2 IU/L | TERMINAL_BW (100 mg/kg, 9 h, dose level Low): 201.1 g | APTT (100 mg/kg, 9 h, dose level Low): 16.1 s | Bas (100 mg/kg, 9 h, dose level Low): 0% | Eos (100 mg/kg, 9 h, dose level Low): 1% | Fbg (100 mg/kg, 9 h, dose level Low): 233.4 mg/dL | Hb (100 mg/kg, 9 h, dose level Low): 13 g/dL | Ht (100 mg/kg, 9 h, dose level Low): 38.8% | Lym (100 mg/kg, 9 h, dose level Low): 75.2% | MCHC (100 mg/kg, 9 h, dose level Low): 33.4% | MCV (100 mg/kg, 9 h, dose level Low): 64 fL | Mono (100 mg/kg, 9 h, dose level Low): 2.8% | Neu (100 mg/kg, 9 h, dose level Low): 20.4% | PT (100 mg/kg, 9 h, dose level Low): 12.6 s | Plat (100 mg/kg, 9 h, dose level Low): 114.4 x10_4/uL | RBC (100 mg/kg, 9 h, dose level Low): 607.4 x10_4/ul | Ret (100 mg/kg, 9 h, dose level Low): 9% | WBC (100 mg/kg, 9 h, dose level Low): 79.5 x10_2/uL | KIDNEY_L (100 mg/kg, 9 h, dose level Low): 0.9 g | KIDNEY_R (100 mg/kg, 9 h, dose level Low): 0.9 g | KIDNEY_TOTAL (100 mg/kg, 9 h, dose level Low): 1.8 g | LIVER (100 mg/kg, 9 h, dose level Low): 7.2 g | ALP [3]: 1288.4 IU/L | ALT [3]: 46.6 IU/L | AST [3]: 75 IU/L | BUN [3]: 9.8 mg/dL | CRE [3]: 0.1 mg/dL | Ca [3]: 10.7 mg/dL | Cl [3]: 105.4 meq/L | DBIL [3]: 0.01 mg/dL | GLC [3]: 166.4 mg/dL | IP [3]: 10.2 mg/dL | K [3]: 4.2 meq/L | LDH [3]: 49 IU/L | Na [3]: 140 meq/L | PL [3]: 118.4 mg/dL | RALB [3]: 2.5 g/dL | TBIL [3]: 0.044 mg/dL | TG [3]: 30 mg/dL | TP [3]: 5.1 g/dL | gamma-GTP [3]: 1 IU/L | TERMINAL_BW [4]: 208.9 g | APTT [4]: 16.6 s | Bas [4]: 0% | Eos [4]: 1% | Fbg [4]: 242.6 mg/dL | Hb [4]: 13 g/dL | Ht [4]: 38.6% | Lym [4]: 75% | MCHC [4]: 33.6% | MCV [4]: 64.8 fL | Mono [4]: 3.6% | Neu [4]: 19.8% | PT [4]: 12.4 s | Plat [4]: 109.9 x10_4/uL | RBC [4]: 596 x10_4/ul | Ret [4]: 8.8% | WBC [4]: 95.2 x10_2/uL | KIDNEY_L [4]: 0.9 g | KIDNEY_R [4]: 0.9 g | KIDNEY_TOTAL [4]: 1.8 g | LIVER [4]: 10.1 g | ALP [5]: 1691 IU/L | ALT [5]: 51.6 IU/L | AST [5]: 80.8 IU/L | BUN [5]: 14.6 mg/dL | CRE [5]: 0.2 mg/dL | Ca [5]: 11.3 mg/dL | Cl [5]: 105.2 meq/L | DBIL [5]: 0.016 mg/dL | GLC [5]: 173.6 mg/dL | IP [5]: 8.5 mg/dL | K [5]: 3.9 meq/L | LDH [5]: 81 IU/L | Na [5]: 142.6 meq/L | PL [5]: 140 mg/dL | RALB [5]: 2.6 g/dL | TBIL [5]: 0.034 mg/dL | TG [5]: 99 mg/dL | TP [5]: 5.5 g/dL | gamma-GTP [5]: 1.2 IU/L | TERMINAL_BW [6]: 201.8 g | APTT [6]: 15.4 s
